Key:
OATs = assay: Loganin transport across Caco-2 monolayers with OATs inhibitor cimetidine; format: in vitro ADME, human
Experimental: (§1) Before the experiments, the human intestinal Caco-2 cell monolayers were washed twice with HBSS medium (pH 7.4). The transport experiments were conducted by adding the drug solutions (containing 1% DMSO) to either the apical (AP, 0.5 mL) or basolateral side (BL, 1.0 mL), while the receiving chamber contained the corresponding volume of blank HBSS medium. The monolayers were incubated at 37°C, and 50 μL samples were taken at 15, 30, 45, 60, 90, and 120 min from the acceptor compartment, and the volume was then immediately replaced with50 μL of fresh, prewarmed blank HBSS. TEER measurements for assessing the membrane integrity took place before and after the experiment. The samples were frozen immediately and stored below −80°C before analysis.
(§2) Several efflux and influx transporters were investigated for their effects on the transport flux of loganin. One hundred μM verapamil was added to evaluate the selectivity of P-glycoprotein (P-gp); inhibiting the efflux by multidrug resistance-associated proteins (MRPs) was undertaken by adding 100μM MK571, 50μM benzbromarone, and 200μM indomethacin [21–23]; 25 μM apigenin was used to investigate breast cancer resistance protein (BCRP); 50 μM sodium vanadate and cimetidine were used as Na^+/K^+pump and […] inhibitors.
(§3) UPLC-MS/MS data acquisition was performed using Analyst 1.5.2 and MultiQuant 2.1.1 software (Applied Biosystems). The data were analyzed by SPSS Software. The apparent permeability coefficient (Papp) was calculated according to Papp = (dQ/dt)/(A·C0)
(§4) where dQ/dt is the steady-state flux (nmol/s), A is the surface area of the insert (cm^2); C0 is the initial concentration. The efflux ratio (P) was determined by calculating the ratio of PappBA versus PappAB as in(1) P=PappBA/PappAB Statistical analysis was performed with analysis of variance (ANOVA) after confirmation of normal distributions.

MRP2, MRP3 = assay: Loganin transport across Caco-2 monolayers with MRP2/MRP3 inhibitor benzbromarone; format: in vitro ADME, human; design: key to Modulatory effect: +: Indicates that the inhibitor has significant effect on the loganin transport
Experimental: as §1, §2, §3, §4

Na^+/K^+pump = assay: Loganin transport across Caco-2 monolayers with Na+/K+ pump inhibitor sodium vanadate; format: in vitro ADME, human; conditions: pretreatment with 50 μM sodium vanadate
Experimental: as §1, §2, §3, §4

Na+/K+ pump = assay: as above; format: in vitro ADME, human; conditions: human
Experimental: as §1, §2, §3, §4

MRPs = assay: Loganin transport across Caco-2 monolayers with MRPs inhibitor MK 571; format: in vitro ADME, human; design: key to Modulatory effect: +: Indicates that the inhibitor has significant effect on the loganin transport
Experimental: as §1, §2, §3, §4

BCRP [1] = system: T1, BCRP; assay: Loganin transport across Caco-2 monolayers with BCRP inhibitor apigenin; format: in vitro ADME, human; design: key to Modulatory effect: +: Indicates that the inhibitor has significant effect on the loganin transport; conditions: human, Caco-2, pH 7.4; with apigenin 25 μM, loganin 20 μM, n = 3
T1 construct: endogenous in cells; host or cells: Caco-2 monolayers
Experimental: as §1, §2, §3, §4

BCRP [2] = biological target: T2, BCRP (Homo sapiens, UniProt Q9UNQ0); assay: as above; format: in vitro ADME; design: key to Modulatory effect: +: Indicates that the inhibitor has significant effect on the loganin transport
T2 construct: endogenous in cells; host or cells: Caco-2 monolayers
T2 sequence (Q9UNQ0 1-655): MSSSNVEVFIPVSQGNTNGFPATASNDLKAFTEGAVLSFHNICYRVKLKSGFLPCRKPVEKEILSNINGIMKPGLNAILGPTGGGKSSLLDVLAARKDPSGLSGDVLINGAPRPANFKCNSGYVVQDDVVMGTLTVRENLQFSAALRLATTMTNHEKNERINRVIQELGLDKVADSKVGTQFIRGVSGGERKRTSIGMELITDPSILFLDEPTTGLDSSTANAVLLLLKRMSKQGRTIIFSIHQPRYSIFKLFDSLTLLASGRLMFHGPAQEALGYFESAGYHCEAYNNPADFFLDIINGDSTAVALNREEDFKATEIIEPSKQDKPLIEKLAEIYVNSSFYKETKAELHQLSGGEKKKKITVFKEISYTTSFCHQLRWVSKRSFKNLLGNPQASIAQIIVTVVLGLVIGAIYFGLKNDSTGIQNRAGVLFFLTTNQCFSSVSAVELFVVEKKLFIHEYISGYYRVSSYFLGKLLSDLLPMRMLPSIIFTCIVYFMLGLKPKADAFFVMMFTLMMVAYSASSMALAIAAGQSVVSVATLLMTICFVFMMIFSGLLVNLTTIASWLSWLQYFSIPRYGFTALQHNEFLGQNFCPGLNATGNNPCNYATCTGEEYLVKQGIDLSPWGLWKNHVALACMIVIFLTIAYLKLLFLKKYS
Experimental: as §1, §2, §3, §4

MRP2 = biological target: T3, MRP2 (Homo sapiens, UniProt Q92887); assay: Loganin transport across Caco-2 monolayers with MRP2 inhibitor indomethacin; format: in vitro ADME; design: key to Modulatory effect: +: Indicates that the inhibitor has significant effect on the loganin transport
T3 construct: MRP2 and MRP3 were the main apically and basolaterally localized MRPs of the Caco-2 cells; endogenous in cells; host or cells: Caco-2 monolayers
Experimental: as §1, §2, §3, §4

[3] = human, Caco-2, pH 7.4, with cimetidine 50 μM, loganin 20 μM, n = 3
[4] = human, Caco-2, pH 7.4, with benzbromarone 50 μM, loganin 20 μM, n = 3
[5] = Caco-2, pH 7.4, with sodium vanadate 50 μM, loganin 20 μM, n = 3
[6] = human, Caco-2, pH 7.4, with MK571 100 μM, with MK 571 100 μM, loganin 20 μM, n = 3
[7] = with 100 μM MK 571, 20 μM loganin

T3 sequence (Q92887 whole entry): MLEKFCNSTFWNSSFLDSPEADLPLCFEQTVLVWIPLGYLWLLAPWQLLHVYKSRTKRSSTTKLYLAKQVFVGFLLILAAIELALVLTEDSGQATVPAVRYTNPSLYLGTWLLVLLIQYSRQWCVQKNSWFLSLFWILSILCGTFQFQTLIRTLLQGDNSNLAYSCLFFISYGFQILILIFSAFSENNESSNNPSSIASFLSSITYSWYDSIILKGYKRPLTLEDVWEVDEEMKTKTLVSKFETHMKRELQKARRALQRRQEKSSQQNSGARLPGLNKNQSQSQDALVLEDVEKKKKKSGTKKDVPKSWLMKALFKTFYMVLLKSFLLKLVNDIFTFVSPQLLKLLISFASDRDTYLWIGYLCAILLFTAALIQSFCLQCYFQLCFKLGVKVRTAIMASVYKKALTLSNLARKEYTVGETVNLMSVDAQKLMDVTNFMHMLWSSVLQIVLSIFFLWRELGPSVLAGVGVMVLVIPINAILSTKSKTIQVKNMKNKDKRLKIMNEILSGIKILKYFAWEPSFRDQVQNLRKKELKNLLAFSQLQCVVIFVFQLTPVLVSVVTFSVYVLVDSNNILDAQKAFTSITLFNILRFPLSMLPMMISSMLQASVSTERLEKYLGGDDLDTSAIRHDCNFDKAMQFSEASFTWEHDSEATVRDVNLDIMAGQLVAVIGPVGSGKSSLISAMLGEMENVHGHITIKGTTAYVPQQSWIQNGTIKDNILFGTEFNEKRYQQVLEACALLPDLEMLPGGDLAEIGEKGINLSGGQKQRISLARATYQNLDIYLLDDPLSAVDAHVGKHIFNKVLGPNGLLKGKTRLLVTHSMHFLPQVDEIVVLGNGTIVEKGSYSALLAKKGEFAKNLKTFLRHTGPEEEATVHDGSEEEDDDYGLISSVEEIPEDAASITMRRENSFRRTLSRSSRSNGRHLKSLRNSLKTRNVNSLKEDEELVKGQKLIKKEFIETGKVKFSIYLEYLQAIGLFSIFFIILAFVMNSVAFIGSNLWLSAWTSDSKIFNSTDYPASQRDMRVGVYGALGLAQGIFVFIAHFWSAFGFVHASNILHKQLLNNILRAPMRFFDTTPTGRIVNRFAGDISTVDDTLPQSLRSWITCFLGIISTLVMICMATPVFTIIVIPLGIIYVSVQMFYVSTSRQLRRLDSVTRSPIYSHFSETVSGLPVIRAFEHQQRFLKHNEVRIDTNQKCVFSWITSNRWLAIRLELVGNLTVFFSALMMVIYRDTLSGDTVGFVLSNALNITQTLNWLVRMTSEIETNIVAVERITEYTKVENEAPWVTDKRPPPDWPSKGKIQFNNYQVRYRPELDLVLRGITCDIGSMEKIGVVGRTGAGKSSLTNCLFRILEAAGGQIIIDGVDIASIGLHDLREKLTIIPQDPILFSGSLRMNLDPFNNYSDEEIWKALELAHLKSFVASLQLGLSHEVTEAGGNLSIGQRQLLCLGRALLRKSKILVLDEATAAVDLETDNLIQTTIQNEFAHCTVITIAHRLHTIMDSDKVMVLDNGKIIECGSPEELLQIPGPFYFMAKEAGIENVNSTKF

## COC(=O)C1=CO[C@@H](O[C@@H]2O[C@H](CO)[C@@H](O)[C@H](O)[C@H]2O)[C@@H]2[C@@H](C)[C@@H](O)C[C@H]12 [loganin, Loganin]
OATs; human, Caco-2, pH 7.4, with cimetidine 50 μM, read-out: P (efflux ratio PappBA/PappAB)
  efflux ratio at 120 min, 20 μM: 0.9
OATs; [3]
  Papp A→B at 120 min, 20 μM: 11 ± 1.5 ×10⁻⁶ cm/s
  Papp B→A at 120 min, 20 μM: 9.9 ± 2 ×10⁻⁶ cm/s
OATs; pretreatment with 50 μM cimetidine
  Effect on Papp values (in words): no significant effects
MRP2, MRP3; human, Caco-2, pH 7.4, with benzbromarone 50 μM, read-out: P (efflux ratio PappBA/PappAB)
  efflux ratio at 120 min, 20 μM: 0.23
MRP2, MRP3; [4]
  Papp A→B at 120 min, 20 μM: 29.5 ± 5.9 ×10⁻⁶ cm/s
  Papp B→A at 120 min, 20 μM: 6.7 ± 0.9 ×10⁻⁶ cm/s
MRP2, MRP3; with benzbromarone 50 μM
  Modulatory effect: +
Na^+/K^+pump
  Effect on Papp values (in words): no significant effects
Na+/K+ pump; Caco-2, pH 7.4, with sodium vanadate 50 μM, read-out: P (efflux ratio PappBA/PappAB)
  efflux ratio at 120 min, 20 μM: 0.73
Na+/K+ pump; [5]
  Papp A→B at 120 min, 20 μM: 12.3 ± 0.7 ×10⁻⁶ cm/s
  Papp B→A at 120 min, 20 μM: 9 ± 1.1 ×10⁻⁶ cm/s
MRPs; after addition of a MRP inhibitor (not named in the abstract), vs control
  Increase of transport from the apical to the basolateral side: 2.09 fold
MRPs; [6]
  Papp A→B at 120 min, 20 μM: 27.2 ± 4.1 ×10⁻⁶ cm/s
  Papp B→A at 120 min, 20 μM: 3.9 ± 0.2 ×10⁻⁶ cm/s
MRPs; human, Caco-2, pH 7.4, with MK571 100 μM, with MK 571 100 μM, read-out: P (efflux ratio PappBA/PappAB)
  efflux ratio at 120 min, 20 μM: 0.14
MRPs; [7]
  PappAB relative to control group: ~2 fold
  Reduction of PappBA vs control: 66.7%
MRPs; with MK 571 100 μM
  Modulatory effect: +
BCRP [1]
  Papp A→B at 120 min, 20 μM: 30.1 ± 6.2 ×10⁻⁶ cm/s
  Papp B→A at 120 min, 20 μM: 12.3 ± 2.5 ×10⁻⁶ cm/s
BCRP [2]; human, Caco-2, pH 7.4, with apigenin 25 μM, read-out: P (efflux ratio PappBA/PappAB)
  efflux ratio at 120 min: 0.41
BCRP [2]; judged from apigenin vs control
  Substrate of BCRP (in words): substrate
BCRP [2]; with apigenin 25 μM
  Modulatory effect: +
MRP2; human, Caco-2, pH 7.4, with indomethacin 200 μM, read-out: P (efflux ratio PappBA/PappAB)
  efflux ratio at 120 min, 20 μM: 0.18
MRP2; with indomethacin 200 μM
  Modulatory effect: +
MRP2; with indomethacin, p < 0.01
  Increase of PappAB vs control: 2.0 fold

Reference: paper PMC6323428, “Elucidation of the Intestinal Absorption Mechanism of Loganin in the Human Intestinal Caco-2 Cell Model” (Evidence-based Complementary and Alternative Medicine : eCAM, 2018)
